Experimental data reported in patent publication US5859026A, “Quinoline carboxylic acid” (priority 1995, dated 1999).
Values after ≈ are worked out from the molar mass of the structure shown.

Tests used:
male ICR mice = experiment: Induction of convulsions, intraperitoneal (i.p.) administration; assay type: in vivo, mouse; conditions: 100 mg/kg i.p., 30 minutes after oral fenbufen 100 mg/kg; for Induction of convulsion, i.p. (number of mice with convulsions): animals with convulsions/animals tested
Text: 4. The induction of convulsions
1) Intraperitoneal (i.p.) administration

Male Wistar rats = experiment: Induction of convulsions, intracerebroventricular (i.c.v.) administration; assay type: in vivo, rat; conditions: 30 minutes after i.p. fenbufen 50 mg/kg, observed at least 4 hours
Experimental: 2) Intracerebroventricular (i.c.v.) administration
Male Wistar rats (weighing 180-220 g) were anesthetized with sodium pentobarbital at 45 mg/kg, i.p., and then the head of the rat was fixed in a stereotaxic apparatus. A stainless steel guide cannula for intracerebroventricular injectionin in 0.6 mm diameter was implanted as a guide cannula so as to be positioned at 1.5 mm above the left lateral cerebroventricle (A:6.2,R:1.0,H:+1.0) according to the brain atlas of De Groot (1959). The guide cannula was fixed by using a dental cement, and then closed with a stainless steel stylet in 0.3 mm diameter. Potassium penicillin G (10,000 units) were subcutaneously administered to prevent an infection. The rats were subjected to the experiments after recovery time for several days from the surgery.
For the measurement of the induction of convulsions, 50 mg/kg of fenbufen was intraperitoneally administered, and then the test compound was intracerebroventricularly administered after 30 minutes from the administration of fenbufen by means of a stainless steel cannula in 0.3 mm diameter that was connected with a polyethylene catheter and adjusted so as to be 1.5 mm longer than the guide cannula for an administration at an accurate position of cerebroventricle (H:+1.0). […] After the completion of the above experiment, the administered positions were confirmed by intraventricularly injecting 10 μl of 1% Evans blue to each of the rats, and followed by sectioning the brains.

[1] = tested on: Chinese hamster lung cell line (CHL cell); experiment: Chromosomal aberration test; assay type: cell-based; conditions: 100 μg/ml, 6 hours treatment at 37° C., then 18 hours in fresh medium
Experimental: 2. Chromosomal aberration test
The experiments were carried out using a Chinese hamster lung cell line (CHL cell). The test compounds prepared were added to cultured cells, and cultivation was continued for 6 hours at 37° C. in 5% CO2. 2-(2-furyl)-3-(5-nitro-2-furyl) acrylamide was used as a positive control. After the cultivation for 6 hours, the cells were washed and added with fresh medium, and then cultivation was further continued for 18 hours. Colcemide solution was added to the culture 2 hours before the completion of the cultivation, and the chromosomal specimens were prepared after the cultivation was completed. Incidence rates of aberration cells were measured at the treatments with 100 μg/ml of the test compounds.

A. calcoaceticus HNR904 = experiment: Antibacterial activity (MIC), clinically isolated strain; assay type: cell-based; conditions: Acinetobacter calcoaceticus; clinical isolate A. calcoaceticus HNR904, Gram -, 10^6 viable cells per ml; read-out: minimum inhibitory concentration (MIC)
Text: (§1) 1. Antibacterial spectrum against standard strains and clinically isolated strains

K. pneumoniae HNR858 = experiment: as above; assay type: cell-based; conditions: Klebsiella pneumoniae; clinical isolate K. pneumoniae HNR858, Gram -, 10^6 viable cells per ml; read-out: minimum inhibitory concentration (MIC)
Text: as §1

S. aureus HPC527 = experiment: as above; assay type: cell-based; conditions: Staphylococcus aureus; clinical isolate S. aureus HPC527, Gram +, 10^6 viable cells per ml; read-out: minimum inhibitory concentration (MIC)
Text: as §1

E. cloacae HNR1946 = experiment: as above; assay type: cell-based; conditions: Enterobacter cloacae; clinical isolate E. cloacae HNR1946, Gram -, 10^6 viable cells per ml; read-out: minimum inhibitory concentration (MIC)
Text: as §1

A. calcoaceticus HNR916 = experiment: as above; assay type: cell-based; conditions: Acinetobacter calcoaceticus; clinical isolate A. calcoaceticus HNR916, Gram -, 10^6 viable cells per ml; read-out: minimum inhibitory concentration (MIC)
Text: as §1

E. faecalis HPC975 = experiment: as above; assay type: cell-based; conditions: Enterococcus faecalis; clinical isolate E. faecalis HPC975, Gram +, 10^6 viable cells per ml; read-out: minimum inhibitory concentration (MIC)
Text: as §1

E. faecalis HPC948 = experiment: as above; assay type: cell-based; conditions: Enterococcus faecalis; clinical isolate E. faecalis HPC948, Gram +, 10^6 viable cells per ml; read-out: minimum inhibitory concentration (MIC)
Text: as §1

E. faecalis HPC984 = experiment: as above; assay type: cell-based; conditions: Enterococcus faecalis; clinical isolate E. faecalis HPC984, Gram +, 10^6 viable cells per ml; read-out: minimum inhibitory concentration (MIC)
Text: as §1

S. marcescens HNR1792 = experiment: as above; assay type: cell-based; conditions: Serratia marcescens; clinical isolate S. marcescens HNR1792, Gram -, 10^6 viable cells per ml; read-out: minimum inhibitory concentration (MIC)
Text: as §1

E. cloacae HNR1939 = experiment: as above; assay type: cell-based; conditions: Enterobacter cloacae; clinical isolate E. cloacae HNR1939, Gram -, 10^6 viable cells per ml; read-out: minimum inhibitory concentration (MIC)
Text: as §1

K. pneumoniae HNR869 = experiment: as above; assay type: cell-based; conditions: Klebsiella pneumoniae; clinical isolate K. pneumoniae HNR869, Gram -, 10^6 viable cells per ml; read-out: minimum inhibitory concentration (MIC)
Text: as §1

S. aureusHPC292 = experiment: as above; assay type: cell-based; conditions: Staphylococcus aureus; clinical isolate S. aureus HPC292, Gram +, 10^6 viable cells per ml; read-out: minimum inhibitory concentration (MIC)
Text: as §1

E. cloacae HNR1941 = experiment: as above; assay type: cell-based; conditions: Enterobacter cloacae; clinical isolate E. cloacae HNR1941, Gram -, 10^6 viable cells per ml; read-out: minimum inhibitory concentration (MIC)
Text: as §1

S. marcescens HNR1544 = experiment: as above; assay type: cell-based; conditions: Serratia marcescens; clinical isolate S. marcescens HNR1544, Gram -, 10^6 viable cells per ml; read-out: minimum inhibitory concentration (MIC)
Text: as §1

S. aureus HPC308 = experiment: as above; assay type: cell-based; conditions: Staphylococcus aureus; clinical isolate S. aureus HPC308, Gram +, 10^6 viable cells per ml; read-out: minimum inhibitory concentration (MIC)
Text: as §1

S. marcescens IAM 1184 = experiment: Antibacterial activity (MIC), standard strain; assay type: cell-based; conditions: Serratia marcescens, IAM1184; standard strain S. marcescens IAM 1184, Gram -, 10^6 viable cells per ml; read-out: minimum inhibitory concentration (MIC)
Text: as §1

K. pneumoniae PCI-602 = experiment: Antibacterial activity (MIC), standard strain; assay type: cell-based; conditions: Klebsiella pneumoniae, PCI602; standard strain K. pneumoniae PCI-602, Gram -, 10^6 viable cells per ml; read-out: minimum inhibitory concentration (MIC)
Text: as §1

E. coli NIHJ JC-2 = experiment: Antibacterial activity (MIC), standard strain; assay type: cell-based; conditions: Escherichia coli, NIHJJC2; standard strain E. coli NIHJ JC-2, Gram -, 10^6 viable cells per ml; read-out: minimum inhibitory concentration (MIC)
Text: as §1

S. aureus FDA 209P JC-1 = experiment: Antibacterial activity (MIC), standard strain; assay type: cell-based; conditions: Staphylococcus aureus, FDA209P; standard strain S. aureus FDA 209P JC-1, Gram +, 10^6 viable cells per ml; read-out: minimum inhibitory concentration (MIC)
Text: as §1

Male Hartley guinea pigs = experiment: Phototoxicity; assay type: in vivo, guinea pig; conditions: 10 mg/kg intravenous, UV exposure 90 minutes, observed 24 hours after irradiation
Experimental: Male Hartley guinea pigs were intravenously administered with test compounds at a dose of 10 mg/kg, and then immediately exposed to WVA on their backs for 90 minutes. Erythemas on the UV irradiated skin were observed 24 hours after the irradiation.

E. colacae 963 = experiment: Antibacterial activity (MIC), standard strain; assay type: cell-based; conditions: Enterobacter cloacae; standard strain E. colacae 963, Gram -, 10^6 viable cells per ml; read-out: minimum inhibitory concentration (MIC)
Experimental: as §1
Antibacterial activities (minimum inhibitory concentration: MIC) were determined according to the standard method of the Japan Society of Chemotherapy (Chemotherapy (Tokyo), 29 (1), 76, 1981) by using standard strains and strains isolated from patients of infectious disease (clinically isolated strains) and applying 10^6 viable cells per ml. […].

Question: With `O=C(O)c1cn(C2CC2)c2cc(N3CCNCC3)c(F)cc2c1=O` [Reference Compound A, Ciprofloxacin] as the compound, how does the “Induction of convulsions, i.p. (in words)” value (male ICR mice) read?
Answer: convulsions were observed in the half of the animals

Question: And the “Induction of convulsion, i.p. (number of mice with convulsions)” value (male ICR mice)?
Answer: 3/6

Question: And the “Induction of convulsions, i.c.v. (in words)” value (Male Wistar rats)?
Answer: convulsions were observed in all of the animals (each three animals)

Question: What about the “Induction of convulsion, i.c.v. (number of rats with convulsions)” value (Male Wistar rats; animals with convulsions/animals tested) of the same compound?
Answer: 3/3

Question: And the “incidence rate of the aberration cells” value [1]?
Answer: less than 10%

Question: With `Cc1c(N2C[C@@H](N)[C@@H](C)C2)c(F)c(N)c2c(=O)c(C(=O)O)cn(C3CC3)c12` [Compound 1, 5-amino-7-((3S,4S)-3-amino-4-methyl-1-pyrrolidinyl)-1-cyclopropyl-6-fluoro-1,4-dihydro-8-methyl-4-oxoquinoline-3-carboxylic acid] as the compound, how does the MIC (A. calcoaceticus HNR904) read?
Answer: 1.56 µg/mL (≈ 4.17 µM)

Question: What about the MIC (K. pneumoniae HNR858) of the same compound?
Answer: 0.1 µg/mL (≈ 0.267 µM)

Question: What about the MIC (S. aureus HPC527) of the same compound?
Answer: 0.006 µg/mL (≈ 0.016 µM)

Question: What about the MIC (E. cloacae HNR1946) of the same compound?
Answer: 0.1 µg/mL (≈ 0.267 µM)

Question: And the MIC (A. calcoaceticus HNR916)?
Answer: 0.006 µg/mL (≈ 0.016 µM)

Question: And the MIC (E. faecalis HPC975)?
Answer: 0.78 µg/mL (≈ 2.08 µM)

Question: What about the MIC (E. faecalis HPC948) of the same compound?
Answer: 0.1 µg/mL (≈ 0.267 µM)

Question: And the MIC (E. faecalis HPC984)?
Answer: 0.05 µg/mL (≈ 0.134 µM)

Question: And the MIC (S. marcescens HNR1792)?
Answer: 1.56 µg/mL (≈ 4.17 µM)

Question: What about the MIC (E. cloacae HNR1939) of the same compound?
Answer: 0.1 µg/mL (≈ 0.267 µM)

Question: And the MIC (K. pneumoniae HNR869)?
Answer: 0.78 µg/mL (≈ 2.08 µM)

Question: What about the MIC (S. aureusHPC292) of the same compound?
Answer: 0.78 µg/mL (≈ 2.08 µM)

Question: And the MIC (E. cloacae HNR1941)?
Answer: 3.13 µg/mL (≈ 8.36 µM)

Question: And the MIC (S. marcescens HNR1544)?
Answer: 0.025 µg/mL (≈ 0.0668 µM)

Question: What about the MIC (S. aureus HPC308) of the same compound?
Answer: 0.2 µg/mL (≈ 0.534 µM)

Question: And the “Induction of convulsions, i.p. (in words)” value (male ICR mice)?
Answer: did not induce convulsions

Question: And the “Induction of convulsion, i.p. (number of mice with convulsions)” value (male ICR mice)?
Answer: 0/6

Question: And the MIC (S. marcescens IAM 1184)?
Answer: 0.05 µg/mL (≈ 0.134 µM)

Question: What about the MIC (K. pneumoniae PCI-602) of the same compound?
Answer: 0.0008 µg/mL (≈ 0.00214 µM)

Question: And the MIC (E. coli NIHJ JC-2)?
Answer: 0.006 µg/mL (≈ 0.016 µM)

Question: What about the MIC (S. aureus FDA 209P JC-1) of the same compound?
Answer: 0.006 µg/mL (≈ 0.016 µM)

Question: What about the “Phototoxicity (in words)” value (Male Hartley guinea pigs) of the same compound?
Answer: induced no phototoxicity

Question: What about the “Phototoxicity (number of guinea pigs with erythemas)” value (Male Hartley guinea pigs; animals with erythemas/animals tested) of the same compound?
Answer: 0/5

Question: And the “incidence rate of the aberration cells” value [1]?
Answer: less than 10%

Question: And the MIC (E. colacae 963)?
Answer: 0.012 µg/mL (≈ 0.032 µM)
